According to US7364741B1, “Peptides of human Papilloma virus for use in human T cell response inducing compositions” (priority 1992, dated 2008):

Key:
[1] = tested on: HLA-A11.2; experiment: Immunochemical peptide-MHC binding assay, purified HLA-A11.2, radiolabeled probe […]; set-up: species or system human; conditions: IC50 of standard divided by IC50 of tested peptide, cysteines synthesized as alanine
From the text: (§1) The method utilizes purified class I molecules and radiolabeled synthetic probes based on consensus peptides. Competitor peptides tested for their binding to the class I molecules compete for this binding with the radiolabeled consensus peptides. The HLA-A1, A2.1, A3.2, A11.2, and A24 molecules were isolated from the following cell lines, respectively: the EBV (Eppstein Barr Virus) transformed cell line Steinlin, the EBV transformed cell line JY, the EBV transformed cell line GM3107, the cell line BVR and the EBV transformed cell line KT3. After large scale culture, cells were lysed in NP40 (Fluka Biochemika, Buchs, Switzerland) and the lysate was passed over two pre-columns of inactivated sepharose CL 4B and Prot A Sepharose. Class I molecules were then purified from the cell lysate by affinity chromatography using Prot A Sepharose beads conjugated with B2.23.2 (anti-HLA-B and HLA-C) and anti-human HLA. The lysate was first depleted of B and C molecules by repeated passage over the B2.23.2 column.
(§2) After two days at 23° C. the percent of MHC-bound radioactivity was measured by size exclusion chromatography on a TSK2000 gel filtration as described by Sette et al. (1992).
(§3) Probe peptides were iodinated by using the Chloramine T method described by Buus et al. (1987). The sequences of the probe peptides used for the aforementioned HLA molecules were […] (SEQ ID NO:76) for A1, […] (SEQ ID NO:77) for A2.1, […] (SEQ ID NO:78) for A3.2, […] (SEQ ID NO:79) for A11.2, and […] (SEQ ID NO:80) for A24.
(§4) Each competitor peptide was tested in two to four completely independent experiments. Since cysteine containing peptides are susceptible to (air) oxidation during synthesis and handling, these peptides were synthesized with an alanine instead of a cysteine.

[2] = target: T1, HLA-A3.2 (Homo sapiens, UniProt P04439); type: binding; conditions: HLA-A3.2; IC50 of standard divided by IC50 of tested peptide; cysteines synthesized as alanine
T1 construct: endogenous in cells; host or cells: EBV transformed cell line GM3107 (protein purified from NP40 lysate)
T1 sequence (P04439 25-365): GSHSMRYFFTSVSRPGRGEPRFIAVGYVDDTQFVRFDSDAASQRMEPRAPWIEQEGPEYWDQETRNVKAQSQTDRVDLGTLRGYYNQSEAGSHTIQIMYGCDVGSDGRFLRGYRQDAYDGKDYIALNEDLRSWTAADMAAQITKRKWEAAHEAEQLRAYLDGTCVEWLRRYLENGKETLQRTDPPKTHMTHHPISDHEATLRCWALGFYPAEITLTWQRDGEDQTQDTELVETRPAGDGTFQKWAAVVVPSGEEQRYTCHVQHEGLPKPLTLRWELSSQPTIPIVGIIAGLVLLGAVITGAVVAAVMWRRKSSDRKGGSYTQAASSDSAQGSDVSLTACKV
T1 sequence (P61769 21-119, further chain): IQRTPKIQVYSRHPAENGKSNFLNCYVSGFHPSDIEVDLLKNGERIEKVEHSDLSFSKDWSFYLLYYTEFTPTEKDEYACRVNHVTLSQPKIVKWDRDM
From the text: as §1, §2, §3, §4

[3] = target: T2, HLA-A2.1 (Homo sapiens, UniProt P04439, D140Y/D185E/D98H/E176V/E277Q/G131W/G231S/I119V/I121R/I166T/I218V/L300P/L318F/N151K/N90K/P208A/P217A/Q86G/Q94H/R138H/R169H/T345S); type: cell-based; conditions: HPV16 peptides, 200 μg/ml peptide, 16 hours, 174CEM.T2 cells; for FI (Fluorescence Index): background set on 0, binding positive when ≧0.5
T2 construct: endogenous in cells; host or cells: 174CEM.T2
Protocol: Of all peptides a dilution of 1 mg/ml in 0.9% NaCl was made.
174CEM.T2 cells were cultured in Iscovel's modified Dulbecco's medium (Biochrom KG Seromed Berlin, Germany: F0465) supplemented with 100 IU/ml penicillin (Biocades Pharma, Leiderdorp, The Netherlands), 100 μg/ml kanamycin (Sigma St. Louis, USA:K-0254), 2 mM glutamine (ICN Biomedicals Inc. Costa Mesa, Calif., USA:15-801-55) and 10% fetal calf serum (FCS, Hyclone Laboratories Inc. Logan, Utah, USA:A-1115-L). Cells were cultured at a density of 2.5×10^5/ml during 3 days at 37° C., 5% CO2 in humified air.
174CEM.T2 cells were washed twice in culture medium without FCS and put in serum-free culture medium to a density of 2×10^6 cells/ml. Of this suspension 40 μl was put into a V bottomed 96 well plate (Greiner GmbH, Frickenhausen, Germany: 651101) together with 10 μl of the individual peptide dilutions (of 1 mg/ml). The end concentration is 200 μg/ml peptide with 8×10^4 174CEM.T2 cells. This solution was gently agitated for 3 minutes after which an incubation time of 16 hours at 37° C., 5% CO2 in humified air took place. Then cells were washed once with 100 μl 0.9% NaCl, 0.5% bovine serum albumin (Sigma St. Louis, USA: A-7409), 0.02% NaN3 (Merck Darmstadt, Germany:822335). After a centrifuge round of 1200 rpm the pellet was resuspended in 50 μl of saturating amounts of HLA-A2.1 specific mouse monoclonal antibody BB7.2 for 30 minutes at 4° C. Then cells were washed twice and incubated for 30 minutes with F(ab)2 fragments of goat anti-mouse IgG that had been conjugated with […] (Tago Inc Burlingame, Calif., USA: 4350) in a dilution of 1:40 and a total volume of 25 μl.
After the last incubation, cells were washed twice and fluorescence was measured at 488 nanometer on a FACScan flow-cytometer (Becton Dickinson, Franklin Lakes, N.J., USA).
The 174CEM.T2 cell line expresses “empty” and unstable HLA-A2.1 molecules that can be stabilized when a peptide is binding to the peptide presenting groove of these molecules. […] This leads to an increase in cell surface expression of the HLA-A2.1 molecule.
With background fluorescence level (without adding peptides) set on a Fluorescence Index level of 0, binding of a peptide was regarded positive when the level of fluorescence was ≧0.5.

[4] = tested on: HLA-A24; experiment: Immunochemical peptide-MHC binding assay, purified HLA-A24, radiolabeled probe AYIDNYNKF; set-up: species or system human; conditions: IC50 of standard divided by IC50 of tested peptide, cysteines synthesized as alanine
From the text: as §1, §2, §3, §4

[5] = target: T3, HLA-A1 (Homo sapiens, UniProt P04439, A114D/A174V/A182V/D101N/E190D/Q94H/R68K/S129P/V100A/V91M/W191G); experiment: Immunochemical peptide-MHC binding assay, purified HLA-A1, radiolabeled probe YLEPAIAKY; conditions: IC50 of standard divided by IC50 of tested peptide, cysteines synthesized as alanine
T3 construct: endogenous in cells; host or cells: EBV transformed cell line Steinlin (protein purified from NP40 lysate)
From the text: as §1, §2, §3, §4

| Sequence | binding ratio to standard [1] | binding ratio to standard [2] | binding ratio to standard [4] | other results |
| --- | --- | --- | --- | --- |
| CVYCKQQLL [HPV16 peptide 8, residues 37-45 of HPV16 protein E6] | 0.0450 | 0.0320 | – | MF (mean HLA-A2.1 fluorescence) [3]: 195.0; FI (Fluorescence Index) [3]: 2.0 |
| CYSLYGTTL [residues 87-95 of HPV16 protein E6] | – | – | 0.1200 | – |
| EIDGPAGQA [residues 37-45 of HPV16 protein E7] | – | – | – | binding ratio to standard [5]: 0.025 |
| EYRHYCYSL [residues 82-90 of HPV16 protein E6] | – | – | 0.0460 | – |
| HVDIRTLED [residues 73-81 of HPV16 protein E7] | – | – | – | binding ratio to standard [5]: 0.014 |
| HYCYSLYGT [residues 85-93 of HPV16 protein E6] | – | – | 0.0037 | – |
| IVYRDGNPY [residues 59-67 of HPV16 protein E6] | 0.4700 | 3.0000 | – | – |
| KCLKFYSKI [residues 72-80 of HPV16 protein E6] | – | – | 0.1100 | – |
| KISEYRHYC [HPV16 peptide 9, residues 79-87 of HPV16 protein E6] | 0.0076 | 0.0044 | – | MF (mean HLA-A2.1 fluorescence) [3]: 211.7; FI (Fluorescence Index) [3]: 2.2 |
| LIRCINCQK [residues 107-115 of HPV16 protein E6] | 0.0120 | 3.7000 | – | – |
| LLRREVYDF [residues 44-52 of HPV16 protein E6] | – | – | 0.0023 | – |
| MHQKRTAMF [residues 1-9 of HPV16 protein E6] | – | – | 0.0049 | – |
| MSCCRSSRT | – | – | – | binding ratio to standard [5]: 0.019 |
| PYAVCDKCL [residues 66-74 of HPV16 protein E6] | – | – | 0.0055 | – |
| QQLLRREVY [residues 42-50 of HPV16 protein E6] | 0.0084 | 0.0058 | – | – |
| RAHYNIVTF [residues 49-57 of HPV16 protein E7] | – | – | 0.0670 | – |
| RFHNIRGRW [residues 131-139 of HPV16 protein E6] | – | – | 0.1000 | – |
| SCCRSSRTR [residues 145-153 of HPV16 protein E6] | 0.0330 | 0.0200 | – | – |
| TTDLYCYEQ [residues 19-27 of HPV16 protein E7] | – | – | – | binding ratio to standard [5]: 0.023 |
| VCDKCLKFY [residues 69-77 of HPV16 protein E6] | 0.0030 | 0.0025 | – | – |
| VYCKQQLLR [residues 38-46 of HPV16 protein E6] | 0.0022 | 0.0012 | 0.0011 | – |
| VYDFAFRDL [residues 49-57 of HPV16 protein E6] | – | – | 0.0610 | – |
| WTGRCMSCC [residues 139-147 of HPV16 protein E6] | – | – | – | binding ratio to standard [5]: 0.020 |
| YAVCDKCLK [residues 67-75 of HPV16 protein E6] | 0.0074 | 0.0012 | – | – |
| YNIVTFCCK [residues 52-60 of HPV16 protein E7] | 0.0060 | 0.0067 | – | – |
| YRDGNPYAV [residues 61-69 of HPV16 protein E6] | – | – | – | binding ratio to standard [5]: 0.008 |
